IC50, EC50 and AC50 data for seven compounds are collected here from ChEMBL document CHEMBL1201862, “PubChem BioAssay data set” (2004).

The term AC50 denotes the midpoint of the concentration-response curve, whichever way the signal moves.

The source made the active and inactive calls.

Series [1] in a line: blockers of CRF-binding protein–CRF-R2 complex – cell-based, uHTS hits, 384-well, dose response (AID 651639). In kind it is functional, Homo sapiens. To be noted: read-out: IC50_Mean.
Series [2] has as its system HEK293. Kind of series: inhibition of NOD1-driven NF-kB reporter – cell-based, luminescence, uHTS, primary screen (AID 1578). To be noted: Homo sapiens. In kind it is functional.
The subject of series [3] is HEK293. Nature of the series: cells. It is filed as functional, cell-based. The settings on record: Homo sapiens.
The test system of series [4] is HEK293. Kind of series: cells. It is filed as functional, cell-based. The settings on record: Homo sapiens. This is another data set of the same source.
Series [5] deals with Ion channel NompC (Danio rerio, UniProt Q7T1G6). Kind of series: Dose response cell-based high-throughput screening assay for agonists of the transient receptor potential channel N1 (TRPN1). [Related pubchem assays (depositor defined):AID1424, AID1448]. In kind it is functional.
Series [6] has as its target T1, Corticotropin-releasing factor receptor 2/Corticotropin-releasing factor-binding protein (Homo sapiens, UniProt P24387+Q13324).
T1 sequence (Q13324 whole entry): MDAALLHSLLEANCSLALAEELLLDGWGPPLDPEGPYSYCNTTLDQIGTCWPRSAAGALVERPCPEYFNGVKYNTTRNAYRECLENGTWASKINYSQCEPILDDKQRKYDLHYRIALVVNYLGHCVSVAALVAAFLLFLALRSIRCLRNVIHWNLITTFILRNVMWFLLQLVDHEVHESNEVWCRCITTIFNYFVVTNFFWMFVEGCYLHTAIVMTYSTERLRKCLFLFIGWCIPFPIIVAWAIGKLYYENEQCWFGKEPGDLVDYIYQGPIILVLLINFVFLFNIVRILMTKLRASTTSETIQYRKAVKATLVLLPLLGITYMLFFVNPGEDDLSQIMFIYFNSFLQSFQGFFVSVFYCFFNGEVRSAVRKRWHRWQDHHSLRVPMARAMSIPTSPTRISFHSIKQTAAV
T1 sequence (P24387 whole entry): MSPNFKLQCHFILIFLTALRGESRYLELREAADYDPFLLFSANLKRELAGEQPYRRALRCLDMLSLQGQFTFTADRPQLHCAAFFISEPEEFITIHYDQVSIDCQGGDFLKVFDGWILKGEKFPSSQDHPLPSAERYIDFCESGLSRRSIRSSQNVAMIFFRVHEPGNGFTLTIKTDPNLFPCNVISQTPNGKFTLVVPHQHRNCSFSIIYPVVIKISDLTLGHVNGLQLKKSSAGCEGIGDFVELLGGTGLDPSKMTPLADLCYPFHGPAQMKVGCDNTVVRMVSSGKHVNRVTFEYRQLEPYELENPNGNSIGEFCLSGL
Nature of the series: Dose Response confirmation of uHTS hits for small molecule antagonists of the CRF-binding protein and CRF-R2 receptor complex. In kind it is functional. To be noted: read-out: IC50_Mean.

In series [7] the target is T1, Corticotropin-releasing factor receptor 2/Corticotropin-releasing factor-binding protein. Nature of the series: activators of CRF receptor 2 with binding protein – uHTS hits, confirmation (AID 602473). In kind it is functional. The settings on record: read-out: EC50_Mean.
The target in series [8] is T2, Mucolipin-3 (Homo sapiens, UniProt Q8TDD5).
T2 sequence (Q8TDD5 whole entry): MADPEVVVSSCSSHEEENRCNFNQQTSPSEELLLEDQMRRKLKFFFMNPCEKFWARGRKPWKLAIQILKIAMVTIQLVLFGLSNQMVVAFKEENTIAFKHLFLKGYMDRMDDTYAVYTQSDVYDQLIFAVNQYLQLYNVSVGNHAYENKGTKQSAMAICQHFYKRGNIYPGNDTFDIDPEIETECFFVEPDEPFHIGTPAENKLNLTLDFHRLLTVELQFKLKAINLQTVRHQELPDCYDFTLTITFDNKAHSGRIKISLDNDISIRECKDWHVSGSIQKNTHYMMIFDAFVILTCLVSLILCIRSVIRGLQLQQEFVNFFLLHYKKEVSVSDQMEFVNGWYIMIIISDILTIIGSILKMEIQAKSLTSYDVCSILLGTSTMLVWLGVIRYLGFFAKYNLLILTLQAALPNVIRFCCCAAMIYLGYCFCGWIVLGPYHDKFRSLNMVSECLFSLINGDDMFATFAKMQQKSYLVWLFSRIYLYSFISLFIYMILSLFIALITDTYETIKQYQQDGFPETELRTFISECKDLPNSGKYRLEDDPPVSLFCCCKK
Kind of series: Fluorescence counterscreen assay for […] agonists: dose response cell-based high-throughput screening assay to identify agonists of the transient receptor potential channel ML3 (TRPML3). [Related pubchem assays: 1424, 1448 ]. In kind it is functional. Background: A counterscreen serves to expose hits that act by an unwanted route or on another target.

Series [9] has as its system HEK293. Kind of series: cells. The settings on record: Homo sapiens. In kind it is functional, cell-based. The source holds these as a separate data set.
Series [10] concerns HEK293. Kind of series: NOD2 signaling inhibitors in MDP-stimulated cells, cell-based, uHTS, luminescence (AID 2001). It is filed as functional. To be noted: Homo sapiens.
The target in series [11] is Nucleotide-binding oligomerization domain-containing protein 2 (Homo sapiens, UniProt Q9HC29). Nature of the series: inhibition of NOD2-driven NF-kB reporter – cell-based, luminescence, uHTS, HEK293 (AID 1566). It is filed as functional.
The nature of series [12]: HIV-1 AD8 envelope cell-cell fusion blockers – cherry-pick, dose response (AID 652062).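 Note: luciferase signal from cell-cell fusion driven by HIV-1 clade B AD8 Env; potency is for inhibitors of fusion seen as a drop in luminescence.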 It is filed as functional, cell-based.
The nature of series [13]: off-target signal loss in HeLa-CEM21 co-culture – HeLa F-luc CTL cells, cherry-picked, counter-screen for HIV-1 Env fusion inhibitor project, dose response (AID 652040).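 Note: potency for signal decrease marking cytotoxic or nonspecific inhibition.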 It is filed as functional, cell-based.
Series [14] can be described thus: viability loss in CEM21 cells – cell-based, CellTiter-Glo luminescence, cherry-picked, cytotoxicity control for viral fusion inhibitor project, dose response (AID 652042).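 Note: potency for signal decrease meaning cytotoxicity.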 It is filed as functional. (ATP-based viability assays read luminescence as a measure of living cells.)
Series [15] concerns the target G-protein coupled receptor 55 (Homo sapiens, UniProt Q9Y2T6). Kind of series: inhibition of LPI-stimulated GPR55 beta-arrestin translocation – imaging, U2OS, beta-arrestin-GFP, LPI agonist, primary screen (AID 2013).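 Note: antagonist potency measured as reduced agonist-driven arrestin aggregation.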 It is filed as functional.
Series [16] can be described thus: blockers of HIV-1 envelope-mediated cell-cell fusion – cherry-pick, dose response (AID 652057). It is filed as functional, cell-based.
Series [17] has as its target T3, Ubiquitin-conjugating enzyme E2 N (Homo sapiens, UniProt P61088).
T3 sequence (P61088 whole entry): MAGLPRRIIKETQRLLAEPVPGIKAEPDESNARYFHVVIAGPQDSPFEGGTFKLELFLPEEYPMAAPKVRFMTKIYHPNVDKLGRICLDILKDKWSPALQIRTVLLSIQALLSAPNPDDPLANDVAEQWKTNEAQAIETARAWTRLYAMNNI
In kind it is functional.

Series [18] concerns the target T3, Ubiquitin-conjugating enzyme E2 N. It is filed as functional. This is another data set of the same source.
In series [19] the target is T4, Histone-lysine N-methyltransferase NSD2 (Homo sapiens, UniProt O96028).
T4 sequence (O96028 whole entry): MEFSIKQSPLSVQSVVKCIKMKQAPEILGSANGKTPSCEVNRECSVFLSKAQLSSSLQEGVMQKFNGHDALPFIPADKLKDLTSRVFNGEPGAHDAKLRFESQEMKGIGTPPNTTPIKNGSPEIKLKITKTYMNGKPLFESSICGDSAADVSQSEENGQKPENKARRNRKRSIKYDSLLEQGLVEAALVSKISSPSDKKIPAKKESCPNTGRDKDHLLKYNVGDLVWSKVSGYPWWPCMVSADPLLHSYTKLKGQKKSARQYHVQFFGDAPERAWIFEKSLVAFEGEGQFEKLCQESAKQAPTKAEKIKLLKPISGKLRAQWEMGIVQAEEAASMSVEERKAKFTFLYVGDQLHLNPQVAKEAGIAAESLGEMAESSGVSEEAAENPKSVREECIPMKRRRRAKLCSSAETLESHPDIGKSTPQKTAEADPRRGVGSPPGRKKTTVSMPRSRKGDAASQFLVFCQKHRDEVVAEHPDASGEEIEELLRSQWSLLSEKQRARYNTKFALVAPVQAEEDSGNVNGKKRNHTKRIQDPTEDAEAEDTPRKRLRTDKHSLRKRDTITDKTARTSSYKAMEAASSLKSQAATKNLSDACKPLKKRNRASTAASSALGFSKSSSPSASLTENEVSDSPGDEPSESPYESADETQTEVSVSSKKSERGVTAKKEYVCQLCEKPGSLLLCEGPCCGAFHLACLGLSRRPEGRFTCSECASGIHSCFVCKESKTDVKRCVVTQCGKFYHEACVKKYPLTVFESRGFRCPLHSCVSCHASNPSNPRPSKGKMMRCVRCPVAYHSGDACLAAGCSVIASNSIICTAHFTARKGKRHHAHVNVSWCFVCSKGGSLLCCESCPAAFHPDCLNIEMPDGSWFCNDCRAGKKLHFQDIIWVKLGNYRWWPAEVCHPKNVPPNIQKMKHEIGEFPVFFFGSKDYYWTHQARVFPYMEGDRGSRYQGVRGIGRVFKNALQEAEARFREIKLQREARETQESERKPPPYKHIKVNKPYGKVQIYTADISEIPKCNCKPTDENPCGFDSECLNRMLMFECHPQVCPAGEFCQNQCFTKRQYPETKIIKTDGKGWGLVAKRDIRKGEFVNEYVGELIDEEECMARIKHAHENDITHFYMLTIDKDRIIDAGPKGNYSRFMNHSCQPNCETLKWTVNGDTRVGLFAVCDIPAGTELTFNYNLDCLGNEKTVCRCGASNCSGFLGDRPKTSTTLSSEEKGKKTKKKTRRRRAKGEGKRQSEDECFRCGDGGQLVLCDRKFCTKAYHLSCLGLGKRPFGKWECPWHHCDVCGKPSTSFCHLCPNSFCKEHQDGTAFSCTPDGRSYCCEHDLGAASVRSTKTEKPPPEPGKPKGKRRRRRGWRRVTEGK
It is filed as biochemical.

In series [20] the target is T5, Bcl-2-related protein A1 (Mus musculus, UniProt Q07440).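 Note: confirmatory dose–response counterscreen on Bfl-1, used to check hits from a UBC13 polyubiquitin inhibitor campaign.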
T5 sequence (Q07440 whole entry): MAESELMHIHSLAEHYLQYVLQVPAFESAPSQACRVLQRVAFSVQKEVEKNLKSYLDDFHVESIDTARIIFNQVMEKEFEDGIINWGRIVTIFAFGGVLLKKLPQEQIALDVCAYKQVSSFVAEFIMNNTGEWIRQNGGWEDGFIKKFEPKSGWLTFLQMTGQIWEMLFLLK
It is filed as functional.

Series [21] addresses Cytochrome P450 2D6 (Homo sapiens, UniProt P10635).
For series [22], the target named is T6, Cytochrome P450 1A2 (Homo sapiens, UniProt P05177).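 Note: PubChem cytochrome P450 panel assay, CYP1A2 panel member.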
T6 sequence (P05177 whole entry): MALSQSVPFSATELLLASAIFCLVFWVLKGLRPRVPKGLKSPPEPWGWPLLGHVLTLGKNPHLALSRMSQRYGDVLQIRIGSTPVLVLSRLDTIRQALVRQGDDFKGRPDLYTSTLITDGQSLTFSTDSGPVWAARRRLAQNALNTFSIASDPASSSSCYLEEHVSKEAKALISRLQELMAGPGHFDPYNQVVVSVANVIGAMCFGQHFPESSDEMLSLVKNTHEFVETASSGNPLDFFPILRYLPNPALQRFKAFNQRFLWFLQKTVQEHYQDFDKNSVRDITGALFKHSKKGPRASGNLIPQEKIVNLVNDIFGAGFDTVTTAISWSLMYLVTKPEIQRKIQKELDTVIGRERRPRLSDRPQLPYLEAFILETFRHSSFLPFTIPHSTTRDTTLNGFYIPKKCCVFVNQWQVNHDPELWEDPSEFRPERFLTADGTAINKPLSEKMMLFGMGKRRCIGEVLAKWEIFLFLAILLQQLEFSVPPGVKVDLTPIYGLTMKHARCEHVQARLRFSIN

In series [23] the target is Cytochrome P450 2C19 (Homo sapiens, UniProt P33261). Kind of series: Cytochrome panel assay with activity outcomes. Panel member name: p450-cyp2c19 Compounds with AC50 equal or less than 10 uM are considered active. In kind it is functional.
Cytochrome P450 2C19, sequence (P33261 whole entry): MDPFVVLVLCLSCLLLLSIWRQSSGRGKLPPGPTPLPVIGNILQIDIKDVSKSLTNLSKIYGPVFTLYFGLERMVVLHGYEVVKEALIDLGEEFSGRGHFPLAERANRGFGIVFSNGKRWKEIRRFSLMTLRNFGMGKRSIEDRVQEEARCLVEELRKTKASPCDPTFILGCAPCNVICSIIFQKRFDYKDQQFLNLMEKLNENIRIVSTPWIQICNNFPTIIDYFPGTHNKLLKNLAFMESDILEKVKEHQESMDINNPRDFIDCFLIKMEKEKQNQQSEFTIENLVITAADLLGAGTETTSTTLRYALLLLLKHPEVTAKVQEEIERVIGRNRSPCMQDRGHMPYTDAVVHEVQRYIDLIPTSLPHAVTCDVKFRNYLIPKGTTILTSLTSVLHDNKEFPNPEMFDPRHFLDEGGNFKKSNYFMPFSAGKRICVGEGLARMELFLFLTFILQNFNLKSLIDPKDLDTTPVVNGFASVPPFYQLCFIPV

Cytochrome P450 2D6, sequence (P10635 whole entry): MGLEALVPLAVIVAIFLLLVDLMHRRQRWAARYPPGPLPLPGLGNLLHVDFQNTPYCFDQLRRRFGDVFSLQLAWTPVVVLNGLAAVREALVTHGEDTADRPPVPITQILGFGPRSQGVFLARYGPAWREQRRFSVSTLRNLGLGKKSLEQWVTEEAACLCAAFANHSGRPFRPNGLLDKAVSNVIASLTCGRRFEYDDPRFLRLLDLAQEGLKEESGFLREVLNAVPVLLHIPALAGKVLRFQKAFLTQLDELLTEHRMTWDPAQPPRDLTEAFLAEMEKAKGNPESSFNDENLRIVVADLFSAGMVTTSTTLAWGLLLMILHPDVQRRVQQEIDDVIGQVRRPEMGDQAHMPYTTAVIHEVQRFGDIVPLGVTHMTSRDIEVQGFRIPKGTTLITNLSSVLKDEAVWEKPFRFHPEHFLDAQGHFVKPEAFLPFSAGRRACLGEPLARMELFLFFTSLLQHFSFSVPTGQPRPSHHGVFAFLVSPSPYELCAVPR
G-protein coupled receptor 55, sequence (Q9Y2T6 whole entry, the tested form may be a part): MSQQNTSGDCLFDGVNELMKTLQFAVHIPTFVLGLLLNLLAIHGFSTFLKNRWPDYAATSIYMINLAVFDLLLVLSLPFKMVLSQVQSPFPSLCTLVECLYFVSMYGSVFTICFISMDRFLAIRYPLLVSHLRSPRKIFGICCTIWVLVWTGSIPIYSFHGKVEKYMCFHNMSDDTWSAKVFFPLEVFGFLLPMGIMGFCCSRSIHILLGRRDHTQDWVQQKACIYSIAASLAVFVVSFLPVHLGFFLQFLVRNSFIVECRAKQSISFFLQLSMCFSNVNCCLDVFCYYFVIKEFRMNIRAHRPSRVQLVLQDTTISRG
Nucleotide-binding oligomerization domain-containing protein 2, sequence (Q9HC29 whole entry, the tested form may be a part): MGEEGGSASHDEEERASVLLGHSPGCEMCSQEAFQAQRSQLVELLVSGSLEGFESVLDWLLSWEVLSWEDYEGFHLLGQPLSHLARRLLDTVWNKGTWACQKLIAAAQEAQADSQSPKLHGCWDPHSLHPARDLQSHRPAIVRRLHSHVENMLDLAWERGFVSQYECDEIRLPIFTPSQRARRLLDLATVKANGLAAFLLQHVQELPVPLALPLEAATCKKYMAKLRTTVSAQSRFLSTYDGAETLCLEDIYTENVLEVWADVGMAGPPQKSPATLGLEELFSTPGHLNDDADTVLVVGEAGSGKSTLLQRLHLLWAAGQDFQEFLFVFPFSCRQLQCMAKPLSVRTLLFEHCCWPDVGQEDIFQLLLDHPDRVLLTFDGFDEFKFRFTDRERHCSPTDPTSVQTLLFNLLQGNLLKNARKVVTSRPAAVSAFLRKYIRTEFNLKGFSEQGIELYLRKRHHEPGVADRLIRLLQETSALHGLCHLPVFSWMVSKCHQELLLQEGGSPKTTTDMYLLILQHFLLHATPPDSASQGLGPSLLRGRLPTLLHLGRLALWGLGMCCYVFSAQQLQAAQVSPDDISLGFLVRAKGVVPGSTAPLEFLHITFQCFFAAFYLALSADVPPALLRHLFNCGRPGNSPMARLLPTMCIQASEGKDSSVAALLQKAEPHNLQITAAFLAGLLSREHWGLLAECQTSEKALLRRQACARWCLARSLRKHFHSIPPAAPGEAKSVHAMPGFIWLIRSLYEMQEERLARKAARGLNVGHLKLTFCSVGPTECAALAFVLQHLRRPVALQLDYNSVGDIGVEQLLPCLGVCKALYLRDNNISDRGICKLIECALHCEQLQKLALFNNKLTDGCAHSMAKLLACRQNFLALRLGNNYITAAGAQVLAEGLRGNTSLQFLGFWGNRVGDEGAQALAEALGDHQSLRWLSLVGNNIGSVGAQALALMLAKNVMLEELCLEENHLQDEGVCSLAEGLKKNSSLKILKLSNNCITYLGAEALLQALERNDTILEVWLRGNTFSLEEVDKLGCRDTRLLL
Ion channel NompC, sequence (Q7T1G6 whole entry): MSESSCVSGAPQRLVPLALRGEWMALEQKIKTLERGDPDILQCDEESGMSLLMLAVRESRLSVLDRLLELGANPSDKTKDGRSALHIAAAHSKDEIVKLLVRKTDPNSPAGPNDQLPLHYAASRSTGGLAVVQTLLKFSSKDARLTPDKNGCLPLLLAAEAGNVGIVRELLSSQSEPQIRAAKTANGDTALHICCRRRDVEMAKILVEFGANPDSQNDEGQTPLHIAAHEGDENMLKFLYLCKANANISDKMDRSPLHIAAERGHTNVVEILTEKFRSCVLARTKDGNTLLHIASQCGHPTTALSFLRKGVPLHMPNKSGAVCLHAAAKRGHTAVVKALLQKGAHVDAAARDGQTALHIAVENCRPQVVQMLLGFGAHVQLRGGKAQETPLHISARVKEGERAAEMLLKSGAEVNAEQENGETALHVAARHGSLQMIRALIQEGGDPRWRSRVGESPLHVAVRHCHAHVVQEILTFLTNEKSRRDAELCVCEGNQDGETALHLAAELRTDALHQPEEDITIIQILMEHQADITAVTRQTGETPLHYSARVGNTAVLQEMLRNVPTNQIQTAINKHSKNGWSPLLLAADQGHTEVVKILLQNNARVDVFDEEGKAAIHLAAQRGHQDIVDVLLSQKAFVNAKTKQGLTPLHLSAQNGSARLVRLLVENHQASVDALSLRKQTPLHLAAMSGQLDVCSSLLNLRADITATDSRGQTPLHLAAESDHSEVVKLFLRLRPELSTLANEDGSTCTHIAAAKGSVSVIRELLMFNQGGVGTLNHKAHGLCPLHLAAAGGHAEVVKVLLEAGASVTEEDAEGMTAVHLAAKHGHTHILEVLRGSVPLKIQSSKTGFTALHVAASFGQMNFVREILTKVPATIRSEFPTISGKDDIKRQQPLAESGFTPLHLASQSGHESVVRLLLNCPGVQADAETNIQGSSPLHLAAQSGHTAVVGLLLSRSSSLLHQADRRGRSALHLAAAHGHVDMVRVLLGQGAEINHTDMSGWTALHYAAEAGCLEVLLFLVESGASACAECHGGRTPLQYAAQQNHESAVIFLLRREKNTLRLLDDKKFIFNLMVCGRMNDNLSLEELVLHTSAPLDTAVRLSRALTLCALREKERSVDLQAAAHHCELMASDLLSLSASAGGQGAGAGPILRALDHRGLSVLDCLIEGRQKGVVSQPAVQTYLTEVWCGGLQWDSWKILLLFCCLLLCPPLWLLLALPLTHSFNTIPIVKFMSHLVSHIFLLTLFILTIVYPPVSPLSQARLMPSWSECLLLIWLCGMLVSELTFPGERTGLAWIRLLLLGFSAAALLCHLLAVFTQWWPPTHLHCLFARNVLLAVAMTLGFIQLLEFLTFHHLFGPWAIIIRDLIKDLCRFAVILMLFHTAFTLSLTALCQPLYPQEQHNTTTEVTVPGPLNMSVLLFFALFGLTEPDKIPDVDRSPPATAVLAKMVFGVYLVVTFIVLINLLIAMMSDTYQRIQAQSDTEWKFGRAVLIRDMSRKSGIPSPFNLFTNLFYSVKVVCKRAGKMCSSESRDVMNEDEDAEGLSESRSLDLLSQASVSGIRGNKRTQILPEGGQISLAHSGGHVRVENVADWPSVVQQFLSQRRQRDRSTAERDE

Take `COC(=O)c1ccc(NC(=O)c2ccccc2NS(=O)(=O)c2ccccc2)cc1`: the IC50 in series [1] is > 20 µM (inactive); in series [3] it was 12.9 µM (active); in series [4], > 20 µM (inactive); in series [6], 0.506 µM (active); in series [9], > 20 µM (inactive); in [10], 7.55 µM (active). Also, the EC50 is 2.34 µM (active) in [2]; > 29.9 µM (inactive) in series [5]; > 53 µM (inactive) in [7]; > 29.9 µM (not active) in series [8]; 6.09 µM (active) in series [11].
Consider `Cc1ccc(C(O)(c2ccccc2)c2ccccc2C(C)N(C)C)c(C)c1` (centres undefined), for which the AC50 in [12] was 30.5 µM (active); in series [13] it was 39 µM (active); in series [14], 19.6 µM (active); in [16] it was 20.1 µM (active). In addition, the IC50 in series [15] was 0.799 µM (active).
On to `CNCc1cc(Br)c(OCC(=O)Nc2ccccc2OC)c(OC)c1`, for which the results for the IC50 in series [17], in series [18] and in [20] were 9.34 µM (active), 8.66 µM (active) and > 20 µM (inactive), respectively. For the same compound, the AC50 in series [19] is 14.7 µM (active).
Take `COc1ccc(N(C(=O)c2snc(C(N)=O)c2N)C(C(=O)NC2CCCC2)c2ccco2)cc1` (centres undefined): the IC50 is 8.44 µM (active) in series [17], 8.84 µM (active) in [18] and > 20 µM (inactive) in series [20].
`NC(=O)c1cc(-c2ccccc2)nc(N2CCOCC2)n1`: the IC50 in series [15] is 7.26 µM (active).
Regarding `CC1=NN(c2ccccc2)C(=O)[C@@H]1/N=N\c1ccc([As](=O)(O)O)c(O)c1`, the AC50 result in series [21] is “inconclusive”; in [22] it was 5.01 µM (inconclusive).
Regarding `NS(=O)(=O)c1cc(C(=O)O)c(Cl)c([N+](=O)[O-])c1Cl`, the AC50 result in [23] is “inconclusive”; in series [21] it was “inconclusive”; in [22], 1.26 µM (inconclusive).
